# Source: patent US9956293B2, “Targeted therapeutics” (Madrigal Pharmaceuticals, Inc., priority 2014, dated 2018)
# Assays:
# HER2 [1] = test: HER2 degradation in BT-474 cells (Example 3, Western blot / in-cell imaging); assay type: cell-based, human; settings: BT-474 cells; for IC50: Homo sapiens, read-out: HER2 (IC50)
# Procedure: BT-474 cells are plated in the interior 60 wells of a 96 well black clear bottom plate (20,000 cells/well) in DMEM medium, with DMEM media in the surrounding 36 wells, and incubated at 37° C. with 5% CO2 overnight. On the second day, concentration response curve source plates are produced (10 point, 3-fold dilution of compounds in DMSO) followed by a 1:30 dilution in an intermediate dilution plate containing DMEM. Compound is transferred from the intermediate plate to the cell plate at a dilution of 1:10.
# Cells are then fixed in 4% phosphate-buffered paraformaldehyde for 30 minutes at room temperature and then permeabilized by washing five times with 0.1% Triton X-100 in PBS for 5 minutes at room temperature on a shaker. […] Cells are washed 5 times with 0.1% Tween-20 in PBS for 5 minutes at room temperature on a shaker and imaged on a LI-COR Odyssey imaging station. The raw data is normalized to DRAQ5 and the HER2 EC50 is calculated using XLfit™.
# HER2 [2] = test: HER2 degradation assay with BT-474 cell line (Example 12, FACS); assay type: cell-based; settings: Homo sapiens; BT-474 cells
# [3] = Tissue distribution of SDC-TRAPs in tumor-bearing mice: plasma, tumor, heart (Examples 14-15); settings: mouse, in vivo
# Procedure: (§1) Tissue Distribution Extraction Procedure for SDC-TRAP Tumor Samples
# (§2) A 150 ng/mL solution of SDC-TRAP-0002 in methanol was prepared using an internal spiking solution (500 μg/mL SDC-TRAP-0002 in DMSO). Using the 10 mM stock solutions of the SDC-TRAP molecule and its Hsp90i binding moiety and effector moiety in DMSO, spiking solutions were prepared at 0.025, 0.05, 0.1, 0.5, 1, 5, 10, 50, 100, 250, and 500 μM in DMSO. 5 μL of each spiking solution was added to a 96-deep well plate.
# (§3) Quality control standards were prepared from 5 μL of 0.1, 1, and 10 μM calibration standard spiking solution added in triplicate into 96-deep well plate and adding 50 μL of matrix (plasma or homogenized tumor).
# (§4) To prepare test samples, test plasma was diluted as needed using blank plasma. Tumor samples were pulverized in liquid nitrogen, weighed, and homogenized in PBS at 5× volume to sample weight. 50 μL of unknown plasma or homogenized tumor sample was mixed with 5 μL of DMSO. The samples were extracted by precipitating calibration standards, QC standards, and unknown samples with 200 μL of internal standard solution. The samples were mixed by vortex at room temperature for approximately 1.5 minutes, then centrifuge at 2-8° C. 150 μL of supernatant was collected and 25 μL of water added. Samples were mixed and analyzed by LC-MS/MS.
# (§5) Samples of plasma, heart and tumor were excised from a euthanized mouse, homogenized in PBS at 5 times tissue weight and diluted in 5 μL DMSO/50 μL sample. Prior to analysis, 55 μL samples and calibration standards were precipitated in 200 μL methanol in 96-well plates. Samples were mixed on a vortex mixer for 1.5 minutes at 1500 rpm at room temperature, then centrifuged at 4400 rpm for 10 minutes at 8° C. 150 μL of each supernatant was transferred to a well of a new 96-well plate, and 25 μL of water was added and mixed with the sample. […] For the analysis of samples from female SCID mice, a gradient of solvent A (water/0.1% formic acid) and B (acetonitrile/0.1% formic acid) was used as in Table A below.
# in vivo = settings: mouse
# Procedure: as §1, §2, §3, §4, §5
smiles,measurement,setting,value
"C=CCNC1=C2C[C@@H](C)C[C@H](OC)[C@H](O)[C@@H](C)/C=C(\C)[C@H](OC(N)=O)[C@@H](OC)/C=C\C=C(/C)C(=O)NC(=CC1=O)C2=O [17-AAG, reference compound]",degradation of HER2,"HER2 [1]; overnight, 17-AAG at 0.5 μM",partial degradation of HER2
"CC(C)c1cc(-c2nnc(O)n2-c2ccc3c(ccn3CCOCCNC(=O)CCCC(=O)Nc3cccc4c3CN(C3CCC(=O)NC3=O)C4=O)c2)c(O)cc1O (centres unmarked) [SDC-TRAP-0015, N1-(2-(2-(5-(3-(2,4-dihydroxy-5-isopropylphenyl)-5-hydroxy-4H-1,2,4-triazol-4-yl)-1H-indol-1-yl)ethoxy)ethyl)-N5-(2-(2,6-dixopiperidin-3-yl)-1-oxoisoindolin-4-yl)glutaramide]",IC50,HER2 [1],2350 nM
same,IC50,HER2 [2],2350 nM
"CC(C)c1cc(-c2nnc(O)n2-c2ccc3c(ccn3CCC(=O)Nc3cccc4c3CN(C3CCC(=O)NC3=O)C4=O)c2)c(O)cc1O (centres unmarked) [SDC-TRAP-0017, 3-(5-(3-(2,4-dihydroxy-5-isopropylphenyl)-5-hydroxy-4H-1,2,4-triazol-4-yl)-1H-indol-1-yl)-N-(2-(2,6-dioxopiperidin-3-yl)-1-oxoisoindolin-4-yl)propanamide]",IC50,HER2 [1],> 5000 nM
same,IC50,HER2 [2],> 10000 nM
"CCc1c2c(nc3ccc(OC(=O)N4CCN(c5ccc(-n6c(O)nnc6-c6cc(C(C)C)c(O)cc6O)cc5)CC4)cc13)-c1cc3c(c(=O)n1C2)COC(=O)C3(O)CC (centres unmarked) [SDC-TRAP-0045, 4,11-diethyl-4-hydroxy-3,14-dioxo-3,4,12,14-tetrahydro-1H-pyrano[3′,4′:6,7]indolizino[1,2-b]quinolin-9-yl 4-(4-(3-(2,4-dihydroxy-5-isopropylphenyl)-5-hydroxy-4H-1,2,4-triazol-4-yl)phenyl)piperazine-1-carboxylate]",Kp at 6 h,[3],1.35
same,Kp at 12 h,[3],8.02
same,Kp at […],[3],0.00624
same,concentration at 6 h,[3],1880 nM
same,concentration at 12 h,[3],141 nM
same,concentration at 24 h,[3],11.3 nM
"CCc1c2c(nc3ccc(OC(=O)N4CCN(Cc5ccc(-n6c(O)nnc6-c6cc(C(C)C)c(O)cc6O)cc5)CC4)cc13)-c1cc3c(c(=O)n1C2)COC(=O)C3(O)CC (centres unmarked) [SDC-TRAP-0046, 4,11-diethyl-4-hydroxy-3,14-dioxo-3,4,12,14-tetrahydro-1H-pyrano[3′,4′:6,7]indolizino[1,2-b]quinolin-9-yl 4-(4-(3-(2,4-dihydroxy-5-isopropylphenyl)-5-hydroxy-4H-1,2,4-triazol-4-yl)benzyl)piperazine-1-carboxylate]",Kp at 6 h,[3],0.844
same,Kp at 12 h,[3],2.2
same,Kp at 24 h,[3],40.3
same,Kp at […],[3],0.0193
same,concentration at 6 h,[3],5880 nM
same,concentration at 12 h,[3],2370 nM
same,concentration at 24 h,[3],54.2 nM
"CCc1c2c(nc3ccc(O)cc13)-c1cc3c(c(=O)n1C2)COC(=O)C3(CC)OC(=O)CN1CCN(c2ccc(-n3c(O)nnc3-c3cc(C(C)C)c(O)cc3O)cc2)CC1 (centres unmarked) [SDC-TRAP-0056, 4,11-diethyl-9-hydroxy-3,14-dioxo-3,4,12,14-tetrahydro-1H-pyrano[3′,4′:6,7]indolizino[1,2-b]quinolin-4-yl 2-(4-(4-(3-(2,4-dihydroxy-5-isopropylphenyl)-5-hydroxy-4H-1,2,4-triazol-4-yl)phenyl)piperazin-1-yl)acetate]",Kp,"in vivo; Tumor/Plasma Ratio, Tissue Distribution Data for SDC-TRAP-0056, time 6 h",1.28
same,Kp,"in vivo; Tumor/Plasma Ratio, Tissue Distribution Data for SDC-TRAP-0056, time 12 h",1.95
same,Kp,"in vivo; Tumor/Plasma Ratio, Tissue Distribution Data for SDC-TRAP-0056, time […]",0.00525
"COc1ccc(-c2cnoc2-c2cc(OC)c(OC)c(OC)c2)cc1OC(=O)N1CCN(Cc2ccc(-n3c(O)nnc3-c3cc(C(C)C)c(O)cc3O)cc2)CC1 [SDC-TRAP-0098, 2-Methoxy-5-(5-(3,4,5-trimethoxyphenyl)isoxazol-4-yl)phenyl-4-(4-(3-(2,4-dihydroxy-5-isopropylphenyl)-5-hydroxy-4H-1,2,4-triazol-4-yl)benzyl)piperazine-1-carboxylate]",Kp at 1 h,[3],0.62
same,Kp at 6 h,[3],8.22
same,Kp at 24 h,[3],300
same,Kp at […],[3],0.01
"CC(C)c1cc(-c2nnc(O)n2-c2ccc(CC3CCN(CC(=O)Nc4cccc5c4CN(C4CCC(=O)NC4=O)C5=O)CC3)cc2)c(O)cc1O (centres unmarked) [SDC-TRAP-0116, 2-(4-(4-(3-(2,4-dihydroxy-5-isopropylphenyl)-5-hydroxy-4H-1,2,4-triazol-4-yl)benzyl)piperidin-1-yl)-N-(2-(2,6-dioxopiperidin-3-yl)-1-oxoisoindolin-4-yl)acetamide]",IC50,HER2 [2],967 nM
same,concentration at 1 h,in vivo; Plasma Conc.,65200 nM
same,concentration at 6 h,in vivo; Plasma Conc.,595 nM
same,concentration at 24 h,in vivo; Plasma Conc.,11.1 nM
same,concentration at 48 h,in vivo; Plasma Conc.,31.5 nM
same,Kp at 1 h,in vivo; Tumor/Plasma Ratio,0.21
same,Kp at 6 h,in vivo; Tumor/Plasma Ratio,10.2
same,Kp at 24 h,in vivo; Tumor/Plasma Ratio,251
same,Kp at 48 h,in vivo; Tumor/Plasma Ratio,46.5
same,Kp at […],in vivo; Tumor/Plasma Ratio,0.03
"CCNC(=O)c1nnc(-c2cc(C(C)C)c(O)cc2O)n1-c1ccc(Oc2ccc(C(=O)N3CCC(C(=O)OC4(CC)C(=O)OCc5c4cc4n(c5=O)Cc5c-4nc4ccc(O)cc4c5CC)CC3)cc2)cc1 (centres unmarked) [SDC-TRAP-0154, 4,11-Diethyl-9-hydroxy-3,14-dioxo-3,4,12,14-tetrahydro-1H-pyrano[3′,4′:6,7]indolizino[1,2-b]quinolin-4-yl 1-(4-(4-(3-(2,4-dihydroxy-5-isopropylphenyl)-5-(ethylcarbamoyl)-4H-1,2,4-triazol-4-yl)phenoxy)benzoyl)piperidine-4-carboxylate]",Kp,"in vivo; Tumor/Plasma Ratio, Tissue Distribution Data for SDC-TRAP-0154, time 1 h",0.06
same,Kp,"in vivo; Tumor/Plasma Ratio, Tissue Distribution Data for SDC-TRAP-0154, time 6 h",1.86
same,Kp,"in vivo; Tumor/Plasma Ratio, Tissue Distribution Data for SDC-TRAP-0154, time 24 h",11.9
same,Kp,"in vivo; Tumor/Plasma Ratio, Tissue Distribution Data for SDC-TRAP-0154, time 48 h",86
same,Kp,"in vivo; Tumor/Plasma Ratio, Tissue Distribution Data for SDC-TRAP-0154, time […]",0.01
"CC(C)c1cc(-c2nnc(O)n2-c2ccc(CN3CCN(C(=O)Oc4ccc(COC(=O)Nc5cccc6c5CN(C5CCC(=O)NC5=O)C6=O)cc4)CC3)c(F)c2)c(O)cc1O (centres unmarked) [SDC-TRAP-0171, 4-((((2-(2,6-dioxopiperidin-3-yl)-1-oxoisoindolin-4-yl)carbamoyl)oxy)methyl)phenyl-4-(4-(3-(2,4-dihydroxy-5-isopropylphenyl)-5-hydroxy-4H-1,2,4-triazol-4-yl)-2-fluorobenzyl)piperazine-1-carboxylate]",Kp at 1 h,[3],0.249
same,Kp at 6 h,[3],3.1
same,Kp at 24 h,[3],407
same,Kp at […],[3],0.0164
same,concentration at 1 h,[3],32200 nM
same,concentration at 6 h,[3],1210 nM
same,concentration at 24 h,[3],1.62 nM
"CCNC(=O)c1nnc(-c2cc(C(C)C)c(O)cc2O)n1-c1ccc(Oc2ccc(C(=O)N[C@@H](CC(C)C)C(=O)Nc3cccc4c3CN(C3CCC(=O)NC3=O)C4=O)cc2)cc1 (stereo partly drawn) [SDC-TRAP-0191, 5-(2,4-dihydroxy-5-isopropylphenyl)-4-(4-(4-(((2S)-1-((2-(2,6-dioxopiperidin-3-yl)-1-oxoisoindolin-4-yl)amino)-4-methyl-1-oxopentan-2-yl)carbamoyl)phenoxy)phenyl)-N-ethyl-4H-1,2,4-triazole-3-carboxamide]",IC50,HER2 [2],1180 nM
"CCNC(=O)c1nnc(-c2cc(C(C)C)c(O)cc2O)n1-c1ccc(Oc2ccc(C(=O)N3CCC[C@H]3C(=O)Nc3cccc4c3CN(C3CCC(=O)NC3=O)C4=O)cc2)cc1 (stereo partly drawn) [SDC-TRAP-0192, 5-(2,4-dihydroxy-5-isopropylphenyl)-4-(4-(4-((2S)-2-((2-(2,6-dioxopiperidin-3-yl)-1-oxoisoindolin-4-yl)carbamoyl)pyrrolidine-1-carbonyl)phenoxy)phenyl)-N-ethyl-4H-1,2,4-triazole-3-carboxamide]",IC50,HER2 [2],> 5000 nM
"CCNC(=O)c1nnc(-c2cc(C(C)C)c(O)cc2O)n1-c1ccc(CN2CCC(C(=O)N[C@@H](CC(C)C)C(=O)Nc3cccc4c3CN(C3CCC(=O)NC3=O)C4=O)CC2)cc1 (stereo partly drawn) [SDC-TRAP-0193, 1-(4-(3-(2,4-dihydroxy-5-isopropylphenyl)-5-(ethylcarbamoyl)-4H-1,2,4-triazol-4-yl)benzyl)-N-((2S)-1-((2-(2,6-dioxopiperidin-3-yl)-1-oxoisoindolin-4-yl)amino)-4-methyl-1-oxopentan-2-yl)piperidine-4-carboxamide]",IC50,HER2 [2],266 nM
"CC(C)c1cc(-c2nnc(O)n2-c2ccc(CN3CCN(C(=O)Cc4ccc(COC(=O)Nc5cccc6c5CN(C5CCC(=O)NC5=O)C6=O)cc4)CC3)c(F)c2)c(O)cc1O (centres unmarked) [SDC-TRAP-0194, 4-(2-(4-(4-(3-(2,4-dihydroxy-5-isopropylphenyl)-5-hydroxy-4H-1,2,4-triazol-4-yl)-2-fluorobenzyl)piperazin-1-yl)-2-oxoethyl)benzyl (2-(2,6-dioxopiperidin-3-yl)-1-oxoisoindolin-4-yl)carbamate]",IC50,HER2 [2],2120 nM
"CCNC(=O)c1nnc(-c2cc(C(C)C)c(O)cc2O)n1-c1ccc(CN2CCC(C(=O)N3CCN(c4cc(C)c(OC(=O)Nc5cccc6c5CN(C5CCC(=O)NC5=O)C6=O)c(C)c4)CC3)CC2)cc1 (centres unmarked) [SDC-TRAP-0195, 4-(4-(1-(4-(3-(2,4-dihydroxy-5-isopropylphenyl)-5-(ethylcarbamoyl)-4H-1,2,4-triazol-4-yl)benzyl)piperidine-4-carbonyl)piperazin-1-yl)-2,6-dimethylphenyl (2-(2,6-dioxopiperidin-3-yl)-1-oxoisoindolin-4-yl)carbamate]",Kp at 1 h,[3],0.109
same,Kp at 6 h,[3],2.36
same,Kp at 24 h,[3],5.5
same,Kp at […],[3],0.014
same,concentration at 1 h,[3],211000 nM
same,concentration at 6 h,[3],7230 nM
same,concentration at 24 h,[3],2030 nM
"CCNC(=O)c1nnc(-c2cc(C(C)C)c(O)cc2O)n1-c1ccc(CN2CCC(C(=O)N(C)CCCOC(=O)Nc3cccc4c3CN(C3CCC(=O)NC3=O)C4=O)CC2)cc1 (centres unmarked) [SDC-TRAP-0231, 3-(1-(4-(3-(2,4-dihydroxy-5-isopropylphenyl)-5-(ethylcarbamoyl)-4H-1,2,4-triazol-4-yl)benzyl)-N-methylpiperidine-4-carboxamido)propyl (2-(2,6-dioxopiperidin-3-yl)-1-oxoisoindolin-4-yl)carbamate]",IC50,HER2 [2],696 nM
